# Test results reported in the Kinase Knowledgebase extract (Sharma et al. 2016).
# Molecular target: EGFR (murine) (UniProt P00533)
# Conditions: nih3t3/c7
# EGFR (murine), sequence (P00533 whole entry, looked up): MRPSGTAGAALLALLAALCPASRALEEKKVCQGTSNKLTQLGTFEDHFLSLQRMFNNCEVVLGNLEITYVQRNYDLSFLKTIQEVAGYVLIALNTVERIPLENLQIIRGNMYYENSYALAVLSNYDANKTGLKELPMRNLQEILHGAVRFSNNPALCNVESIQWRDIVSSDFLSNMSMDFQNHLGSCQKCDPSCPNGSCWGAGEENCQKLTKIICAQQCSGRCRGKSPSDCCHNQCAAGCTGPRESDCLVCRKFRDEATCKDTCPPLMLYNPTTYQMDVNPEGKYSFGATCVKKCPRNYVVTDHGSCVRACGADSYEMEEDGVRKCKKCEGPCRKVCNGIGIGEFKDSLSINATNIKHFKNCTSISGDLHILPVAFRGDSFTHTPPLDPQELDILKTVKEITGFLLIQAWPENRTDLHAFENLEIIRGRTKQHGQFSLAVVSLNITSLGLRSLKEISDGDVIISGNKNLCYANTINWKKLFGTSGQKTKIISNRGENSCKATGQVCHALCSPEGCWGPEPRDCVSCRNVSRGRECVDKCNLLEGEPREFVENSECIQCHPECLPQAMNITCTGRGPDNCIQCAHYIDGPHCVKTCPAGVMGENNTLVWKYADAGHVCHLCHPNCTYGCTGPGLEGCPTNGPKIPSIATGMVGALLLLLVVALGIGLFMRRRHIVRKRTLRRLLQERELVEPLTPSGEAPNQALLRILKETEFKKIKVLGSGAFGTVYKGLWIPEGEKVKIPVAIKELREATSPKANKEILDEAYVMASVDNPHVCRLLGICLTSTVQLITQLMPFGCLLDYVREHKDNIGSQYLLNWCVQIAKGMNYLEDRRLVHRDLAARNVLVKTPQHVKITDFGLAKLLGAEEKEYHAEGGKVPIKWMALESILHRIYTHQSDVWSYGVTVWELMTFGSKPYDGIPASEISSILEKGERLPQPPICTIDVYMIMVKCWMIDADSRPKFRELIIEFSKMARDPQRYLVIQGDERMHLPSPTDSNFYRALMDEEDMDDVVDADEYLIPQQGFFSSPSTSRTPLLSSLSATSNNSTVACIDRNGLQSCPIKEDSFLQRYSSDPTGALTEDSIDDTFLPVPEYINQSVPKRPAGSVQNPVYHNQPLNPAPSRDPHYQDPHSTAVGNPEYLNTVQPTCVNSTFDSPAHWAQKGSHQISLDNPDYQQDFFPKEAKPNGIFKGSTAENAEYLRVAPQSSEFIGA
row,IC50 [µM],SMILES
1,> 10,CCOC(=O)c1[nH]c(/C=C2\C(=O)Nc3ccccc32)c(C(C)=O)c1C
2,29.9,O=C1Nc2ncccc2/C1=C/c1cc2c([nH]1)CCCC2
3,12.5,O=C(O)CCc1c(/C=C2\C(=O)Nc3ncccc32)[nH]c2c1CCCC2
4,> 100,CCc1c(/C=C2\C(=O)Nc3ccccc32)[nH]c(C(=O)O)c1C
5,> 100,CC(=O)c1[nH]c(/C=C2\C(=O)Nc3ccccc32)c(C)c1C
6,> 50,COC(=O)Cc1c(Cl)[nH]c(/C=C2\C(=O)Nc3ccccc32)c1C(=O)OC
7,> 50,Cc1[nH]c(/C=C2\C(=O)Nc3ncccc32)c(C)c1CCC(=O)O
8,38.2,Cc1c(/C=C2\C(=O)Nc3ncccc32)[nH]c2c1CCCC2
9,> 10,CCOC(=O)c1c(C)[nH]c(/C=C2\C(=O)Nc3ccc(NC(=O)c4ccc(C(=O)OC)cc4)cc32)c1C
10,> 50,COC(=O)CCc1c[nH]c(/C=C2\C(=O)Nc3cc(OC)c(OC)cc32)c1C
11,> 100,Cc1c[nH]c(/C=C2\C(=O)Nc3ccccc32)c1CC(=O)O
12,> 100,Cc1cc(C)c(/C=C2\C(=O)Nc3ncccc32)[nH]1
13,> 25,CCOC(=O)c1c(C)[nH]c(/C=C2\C(=O)Nc3ccc(Br)cc32)c1C
14,> 25,Cc1c(CCC(=O)O)c[nH]c1/C=C1\C(=O)Nc2ncccc21
15,> 10,CCOC(=O)CCc1c(C(=O)OCC)[nH]c(/C=C2\C(=O)Nc3ccccc32)c1CC(=O)OCC
16,> 100,COC(=O)CCc1c[nH]c(/C=C2\C(=O)Nc3ccccc32)c1C
